86 compounds from a melting point compilation (Tetko et al.; mined from patent text by program, amines drawn as free bases though some values may be those of a salt) can be followed below.

`COc1ccc(S(=O)(=O)C2(C(=O)O)CCN(CCCOc3ccccc3)CC2)cc1` yielded a melting point of 101 °C.
The value for `CCC1(c2ccc(COc3ccc(CO)c(CO)c3)s2)OCCO1` was 78 to 80 °C; that for `C#CCOc1cc(-n2c(OC)nc(C(F)(F)F)cc2=O)c(F)cc1Br` was 136 to 138 °C; that for `COC(=O)c1ccc2nc(-c3ccc4c(c3)C(C)(C)CCC4(C)C)[nH]c2c1` was 223 °C.
The value for `O=c1[nH]c2ncc(-c3ccc(-c4nnc[nH]4)cc3)nc2n1CCN1CCCCC1` was 194 to 197 °C.
Turning to `CCOC(=O)C1CC(O)c2cc3c(cc2C1c1cc(OC)c(OC)c(OC)c1)OCO3` (stereo unspecified), the melting point is 151 to 152 °C.
The value for `Cc1cc2c(=O)n(CCN3CCC(Nc4nc5ccccc5n4Cc4ccc(F)cc4)CC3)c(=O)[nH]c2s1` was 188 °C; that for `COc1cc(C(=O)N[C@@H]2CCN(C)C2)ccc1Nc1ncc2c(n1)N(C1CCCCC1)CC(F)(F)C(=O)N2C` was 98 to 99 °C; that for `COc1ccc(/C(C)=C/c2ccc(C(=O)O)cc2)cc1C1(C)CCCCC1` was 175 to 176 °C.
`NC(=O)C(O)c1ccsc1` (stereo unspecified) came in with a melting point of 114 to 120 °C.
As for `C[N+]1([O-])CC(c2ccccn2)C(=O)c2ccccc21` (stereo unspecified), the melting point lay within 132 to 134 °C.
The value for `CN(Cc1ccc(NC(=O)C2=Cc3cc(-c4ccc(S(C)(=O)=O)cc4)ccc3OCC2)cc1)C1CCOCC1` was 233 to 235 °C; that for `O=C1Cc2c(cccc2C(=O)O)Sc2ccc(F)cc21` was 242 to 244 °C.
The value for `Cc1cc(I)ccc1Nc1c(-c2nnc(N)o2)cc2c(ncn2C)c1F` was 258 to 260 °C.
The value for `O=S(=O)(c1ccc(Cl)cc1)c1ccc(-c2ccc(O)cc2)cc1` was 268 to 270 °C.
The compound `CC(=O)N1CCN=C1Nc1c(C)c(C)nn1C` showed a melting point of 212 to 215 °C.
Next, `O=Cc1nn2c3c(cccc13)CCC2`: 119 to 120 °C; `Cc1nnc2ccc(-c3cccc(CC(=O)NC(C)C)c3)nn12`: 197 to 200 °C; `CC(=O)Nc1ccc2oc3c(OC(F)F)ccc(C(=O)Nc4c(Cl)cncc4Cl)c3c2c1`: 234 °C.
Take `O=S1(=O)N=C2CCCN2c2ccc(Oc3cccc(-c4ccco4)c3)cc21`: the melting point was 186 to 189 °C.
Regarding `N#Cc1ccc(-c2cn3c(C(F)(F)F)cccc3n2)cc1`, the melting point was more than 300 °C.
The value for `CC(C)c1ccc(-c2c(Cl)c(CCl)nc3sc4c(c23)CCN(Cc2ccccc2)C4)cc1` was 190 to 192 °C; that for `CC1(C)OC(=O)Nc2ccc(-c3cccc(C#C[Si](C)(C)C)c3)cc21` was 240 to 242 °C.
Regarding `Cn1cc(C2=C(c3cn(CCCNCCN)c4ccccc34)C(=O)NC2=O)c2ccccc21`, the melting point lay within 190 to 193 °C.
Consider `CCCCc1c2c(nc3c1CCc1cc4nc(C#N)c(N)cc4nc1-3)C(=O)CCC2`, for which the melting point is more than 300 °C.
The value for `CCn1nc(-c2ccccc2)c(C(C)=O)c(N)c1=O` was 151 to 153 °C.
The value for `Clc1ccc2c(c1)C(c1ccccc1)=NCCN2C1=NCCO1` was 125 to 126 °C.
The value for `O=C(c1ccc(Br)cc1)c1ccc2cc[nH]c2c1` was 47 to 49 °C; that for `O=C(O)[C@H](Cc1cccc(OC(F)(F)C(F)F)c1)[C@@H](O)c1ccnc(F)c1` (racemic) was 134 to 135 °C; that for `Cc1nc(-c2nn(-c3ccccc3)c(=O)cc2Oc2ccccc2)n[nH]1` was 245 to 247 °C.
The compound `COC(=O)C(=C\c1c(OC)cc(OC)cc1OC)/C(=C\c1ccccc1)C(=O)O` yielded a melting point of 208 to 210 °C.
Next, `CC1ON=C(c2ccc(F)cc2)C1CN(O)C(N)=O` (stereo unspecified): 149 to 151 °C.
Compound `CC(C)(C)c1ccc(CCC(CC2CCCCC2)OC(=O)Oc2ccc(C(=O)O)cc2)cc1NC(=O)CC1c2ccccc2Oc2ccccc21` (stereo unspecified) came in with a melting point of 139 to 141 °C.
`CCOC(=O)C1=C(C)NC(CSc2ccccc2)=C(C(=O)OCC)C1c1cccc([N+](=O)[O-])c1` (stereo unspecified) had a melting point of 92 to 94 °C.
Next, `O=C(c1cccs1)N1CCN(c2c([N+](=O)[O-])c(=O)n(Cc3ccccc3)c3ncccc23)CC1`: 255 °C; `Cc1nc(-c2cccc(I)c2)no1`: 90 to 91.5 °C.
Regarding `O=C1CC(c2cccc(-c3nc(CO)co3)c2)=Nc2ccc(-n3cccc3)cc2N1`, the melting point is 240 to 242 °C.
Consider `CC(C)(C)OP(=O)(Cc1ccc(Br)cc1)OC(C)(C)C`, for which the melting point stood at 45 °C.
The value for `CC(C)(C)OC(=O)N1CCN(c2ccc(N3CC(CN=[N+]=[N-])OC3=O)cc2F)CC1` (stereo unspecified) was 101 to 104 °C.
Next, `Cc1noc(NS(=O)(=O)c2ccsc2C(N)=O)c1Br`: 168 to 170 °C; `O=C(c1cccnc1)N1CCN=C1Nc1c(Cl)cccc1Cl`: 173 to 174 °C.
Compound `Cc1nc2c(N)nc3ccccc3c2n1CCCCNS(=O)(=O)c1ccccc1` gave a melting point of 215 to 216 °C.
Next, `Cc1nccn1C[Si](C)(C)Cc1ccc(F)cc1`: 60 to 62 °C.
The value for `COc1ccc(C(=O)Nc2ccccc2C(O)Cc2ccccn2)cc1` (stereo unspecified) was 127 to 128 °C.
Next, `CP(C)(=O)C1CC(c2ccccc2)=NO1` (stereo unspecified): 153 °C; `C[C@@H]1[C@H](O[Si](C)(C)C(C)(C)C)[C@@H](C)C(S(=O)(=O)c2ccccc2)=C[C@H]1O`: 107 to 108 °C; `C[C@H]1O[C@@H](C(Cl)(Cl)Cl)OC(=O)[C@@H]1C`: 128 to 130 °C.
Turning to `O=C1Nc2cccnc2N(C(=O)CCCl)c2ccccc21`, the melting point is 216 to 218 °C.
Next, `COc1ccc2cc([C@H](C)C(=O)OCC(=O)N(C)CC(=O)OCCO[N+](=O)[O-])ccc2c1`: 71 to 73 °C.
Next, `CNC(Cc1ccccc1N)c1ccncc1` (stereo unspecified): 69 to 71 °C.
With `COC(=O)c1nc(-c2ccc(CF)cc2)cc(N)c1Cl`, the melting point is 95 to 97 °C.
The value for `O=C1NCCc2c(-c3cccs3)[nH]c3cccc1c23` was 220 to 222 °C; that for `COC(=O)N(Cc1ccccc1)[C@H]1CC[C@H](c2ccc(O)cc2)CC1` was 61 to 66 °C.
The value for `COc1c(C=NO)c(=O)n(C)c(=O)n1C` was 127 to 128 °C; that for `O=C1Nc2cc(C(F)(F)F)ccc2Oc2ccccc21` was 246 to 247 °C.
For the compound `CC(C)(O)Cc1c2c(nn1CCO)c(N)nc1ccccc12`, the melting point fell in the range of 196 to 198 °C.
Next, `CCOCc1nc2c(N)nc3cccnc3c2n1CC1(O)CCCCC1`: 171 to 173 °C.
The value for `CCn1cc(C(=O)O)c(=O)c2c(F)c(F)c(N3CCN(C)CC3)c(F)c21` was 221 to 223 °C.
Next, `COc1ccccc1CNc1cc(C(N)=O)c([N+](=O)[O-])cc1[N+](=O)[O-]`: 198 to 202 °C; `OCC(O)(C(F)(F)F)C(F)(F)F`: 47 °C.
As for `O=C(O)c1ncn2c(C(F)(F)F)cc(-c3ccc(C(F)(F)F)cc3)nc12`, the melting point turned out to be 231 °C.
The value for `CS(=O)(=O)c1ccc(-c2cnn(-c3ccc([N+](=O)[O-])s3)c(=O)c2-c2ccc(F)cc2)cc1` was 252 to 253 °C; that for `Cc1cc(=O)n(CCCN2CCC(c3c[nH]c4ccccc34)CC2)c2ccccc12` was 74 to 77 °C.
The value for `O=C1c2c(-c3ccc(Cl)cc3)noc2CCC1CCCN1CCN(C(c2ccc(F)cc2)c2ccc(F)cc2)CC1` (stereo unspecified) was 150 to 152 °C; that for `COCCCOc1ccc(-c2nc(C(=O)Nc3nccs3)c(-c3ccc(Cl)cc3)[nH]2)cc1` was 173 to 177 °C; that for `Cc1c(Nc2c(C#N)cncc2-c2coc(CN3CCN(C)CC3)c2)ccc2[nH]ccc12` was 129 °C.
`CC(C)[C@H](NC(=O)[C@H](C)NC(=O)OCc1ccccc1)[C@@H](O)c1c(-c2ccccc2)c1=O` gave a melting point of 156 to 158 °C.
Next, `CCOC(=O)CCCOc1ccc2c(c1)CN1CC(=O)NC1=N2`: 243 to 244 °C; `CC(C)c1cc(-c2ccc(F)c3ccccc23)nc(N(S(C)(=O)=O)S(C)(=O)=O)n1`: 144 °C; `Cc1cc(C)c(O)c(CC(C)(C)CO)c1`: 117 °C.
Next, `Cc1cccc(-c2n[nH]cc2-c2ccc(F)c(-c3cc(F)c(S(N)(=O)=O)cc3F)c2)n1`: 122 to 125 °C; `COc1ccccc1-n1ccc(=O)c(-c2ccnn2-c2ccccc2)n1`: 153 to 154 °C; `O=C(CBr)c1ccc(Cl)c(S(=O)(=O)Nc2ccccc2)c1`: 154 °C.
The value for `O=C1CCC(CN2C(=O)C3(COc4cc5c(cc43)OCO5)c3ccccc32)N1` (stereo unspecified) was 121 to 130 °C.
`CCOC(=O)COc1cccc(C(N)=O)c1`: the melting point fell in the range of 158 to 159 °C.
The value for `N=C(N)c1ccc2nc(-c3ccc(-c4nc5ccc(C(=N)N)cc5[nH]4)o3)[nH]c2c1` was more than 300 °C; that for `N#Cc1ccc2cc(O)ccc2c1` was 160 to 164 °C; that for `Cc1nc(Cl)c(S(C)(=O)=O)c(Cl)n1` was 146 to 147 °C.
Next, `CC(C)(C)OC(=O)NCCc1ccc(CC(=O)O)cc1`: 94 to 95 °C.
Next, `CCN(c1ccc(N2CCN(c3ccc(OC)cc3)CC2)cc1)c1nc(-c2ccccc2)cs1`: 224 °C.
`CCC(C)N(C)C(=O)c1cc(-c2ccccc2)c2sccc2c1` (stereo unspecified): the melting point amounted to 105 °C.
The value for `O=Cc1ccc(C#Cc2ccc(Cl)cc2)cc1` was 123 °C; that for `Cc1cccc(-c2nc3cccnn3c2-c2ccnc(NC(=O)N3CCc4ccccc4C3)c2)c1` was 122 to 124 °C; that for `CC(=O)c1cccc(NC(=O)NC2N=C(c3ccccc3F)c3cccc(C)c3N(CC(=O)N3CC4CCC(CC4)C3)C2=O)c1` (stereo unspecified) was more than 250 °C.
The value for `CC1(C)Oc2cc3nonc3cc2C(NC(=O)NCCCl)C1O` (stereo unspecified) was 178 to 180 °C.
Regarding `CCCCN(C)C(=O)CS(=O)CCCCCOc1ccc(C2=C(c3ccccc3)CCCc3cc(O)ccc32)cc1` (stereo unspecified), the melting point was in the range of 87 to 89 °C.

For orientation: melting point means the temperature of the solid-liquid transition.
